Data: US20190086432A1, “SYSTEMS AND METHODS RELATED TO HUMAN NON-INVASIVE DRUG TESTING” (priority 2017, published 2019)

Columns and labels:
[1] = sustained abstinence in chronic frequent smokers; cited from earlier work
[2] = people driving; similar to 0.08 breath alcohol; cited from earlier work
physchem = details: pH 9.5, aqueous buffer

SMILES	time residual THC can be detected in blood [1]	blood concentration showing increased weaving within the lane [2]	solubility (physchem)
CCCCCc1cc(O)c2c(c1)OC(C)(C)[C@@H]1CCC(C)=C[C@@H]21 [THC, Δ-9-tetrahydrocannabinol]	up to a month	13.1 µg/L	
COc1cc(NS(C)(=O)=O)ccc1N [OX0245]			≥ 1 mg/mL
